Tests used:
Type in all cases: biochemical
VEGFR2 = biological target: T1, VEGFR2 (Homo sapiens, UniProt P35968); assay: recombinant kinase assay (Transcreener ADP detection)
T1 construct: gene KDR

PKD1 = biological target: T2, PKD1 (Homo sapiens, UniProt Q15139); assay: recombinant kinase assay (IMAP fluorescence polarization, TAMRA-peptide)
T2 construct: gene PRKD1
T2 sequence (Q15139 1-912): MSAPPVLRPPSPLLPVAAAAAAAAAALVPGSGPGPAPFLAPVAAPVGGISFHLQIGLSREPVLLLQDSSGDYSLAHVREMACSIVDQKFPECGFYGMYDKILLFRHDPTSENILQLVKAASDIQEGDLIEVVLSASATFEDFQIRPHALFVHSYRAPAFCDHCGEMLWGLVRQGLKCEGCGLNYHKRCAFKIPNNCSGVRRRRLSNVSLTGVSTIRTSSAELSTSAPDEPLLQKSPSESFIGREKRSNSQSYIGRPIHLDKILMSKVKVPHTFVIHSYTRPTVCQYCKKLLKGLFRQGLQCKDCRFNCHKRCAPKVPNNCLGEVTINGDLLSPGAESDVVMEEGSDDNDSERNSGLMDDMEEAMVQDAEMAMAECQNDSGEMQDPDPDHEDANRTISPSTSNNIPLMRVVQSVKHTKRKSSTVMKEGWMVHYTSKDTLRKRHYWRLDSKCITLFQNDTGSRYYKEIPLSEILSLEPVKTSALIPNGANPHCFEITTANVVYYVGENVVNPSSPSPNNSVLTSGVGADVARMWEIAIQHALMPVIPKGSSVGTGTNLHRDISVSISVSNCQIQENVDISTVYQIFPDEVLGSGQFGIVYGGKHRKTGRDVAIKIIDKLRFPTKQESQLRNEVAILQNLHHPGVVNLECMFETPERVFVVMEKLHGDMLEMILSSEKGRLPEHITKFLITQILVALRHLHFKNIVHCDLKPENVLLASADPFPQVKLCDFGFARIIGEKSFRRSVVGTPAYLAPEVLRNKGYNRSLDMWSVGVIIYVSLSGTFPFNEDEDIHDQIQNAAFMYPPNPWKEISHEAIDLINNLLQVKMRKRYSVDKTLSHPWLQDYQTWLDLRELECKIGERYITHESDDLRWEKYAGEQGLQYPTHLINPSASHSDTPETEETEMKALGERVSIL

PKD2 = biological target: T3, PKD2 (Homo sapiens, UniProt Q9BZL6); assay: kinase selectivity study (SignalChem) at single […] concentration
T3 construct: gene PRKD2
T3 sequence (Q9BZL6 1-878): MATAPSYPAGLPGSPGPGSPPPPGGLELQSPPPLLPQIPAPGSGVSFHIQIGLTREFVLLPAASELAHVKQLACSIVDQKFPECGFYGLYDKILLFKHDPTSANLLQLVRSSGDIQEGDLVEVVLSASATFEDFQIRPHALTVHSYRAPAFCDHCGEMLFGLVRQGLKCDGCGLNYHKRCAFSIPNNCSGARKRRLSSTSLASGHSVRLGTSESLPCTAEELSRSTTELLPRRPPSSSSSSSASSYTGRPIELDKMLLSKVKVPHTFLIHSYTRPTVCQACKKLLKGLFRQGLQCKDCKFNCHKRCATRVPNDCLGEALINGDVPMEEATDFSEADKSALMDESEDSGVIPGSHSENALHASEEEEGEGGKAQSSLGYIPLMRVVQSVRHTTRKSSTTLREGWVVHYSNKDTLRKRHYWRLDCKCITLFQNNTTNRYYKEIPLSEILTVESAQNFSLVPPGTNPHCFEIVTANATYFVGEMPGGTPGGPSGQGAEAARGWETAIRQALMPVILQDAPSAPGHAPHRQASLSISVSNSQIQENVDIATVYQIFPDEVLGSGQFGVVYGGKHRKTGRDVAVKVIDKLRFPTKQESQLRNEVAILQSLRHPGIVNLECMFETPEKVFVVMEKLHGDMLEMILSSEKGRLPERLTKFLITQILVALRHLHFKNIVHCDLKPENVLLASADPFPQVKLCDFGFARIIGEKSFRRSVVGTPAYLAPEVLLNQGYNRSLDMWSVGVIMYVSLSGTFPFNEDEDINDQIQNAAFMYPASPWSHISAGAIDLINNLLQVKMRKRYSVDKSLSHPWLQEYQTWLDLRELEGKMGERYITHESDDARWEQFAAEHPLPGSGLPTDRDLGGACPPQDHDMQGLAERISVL

VEGFR3 = biological target: T4, VEGFR3 (Homo sapiens, UniProt P35916); assay: recombinant kinase assay (ProQinase) at single […] concentration
T4 construct: gene FLT4

VEGFR1 = biological target: T5, VEGFR1 (Homo sapiens, UniProt P17948); assay: as above
T5 construct: gene FLT1
T5 sequence (P17948 27-1338): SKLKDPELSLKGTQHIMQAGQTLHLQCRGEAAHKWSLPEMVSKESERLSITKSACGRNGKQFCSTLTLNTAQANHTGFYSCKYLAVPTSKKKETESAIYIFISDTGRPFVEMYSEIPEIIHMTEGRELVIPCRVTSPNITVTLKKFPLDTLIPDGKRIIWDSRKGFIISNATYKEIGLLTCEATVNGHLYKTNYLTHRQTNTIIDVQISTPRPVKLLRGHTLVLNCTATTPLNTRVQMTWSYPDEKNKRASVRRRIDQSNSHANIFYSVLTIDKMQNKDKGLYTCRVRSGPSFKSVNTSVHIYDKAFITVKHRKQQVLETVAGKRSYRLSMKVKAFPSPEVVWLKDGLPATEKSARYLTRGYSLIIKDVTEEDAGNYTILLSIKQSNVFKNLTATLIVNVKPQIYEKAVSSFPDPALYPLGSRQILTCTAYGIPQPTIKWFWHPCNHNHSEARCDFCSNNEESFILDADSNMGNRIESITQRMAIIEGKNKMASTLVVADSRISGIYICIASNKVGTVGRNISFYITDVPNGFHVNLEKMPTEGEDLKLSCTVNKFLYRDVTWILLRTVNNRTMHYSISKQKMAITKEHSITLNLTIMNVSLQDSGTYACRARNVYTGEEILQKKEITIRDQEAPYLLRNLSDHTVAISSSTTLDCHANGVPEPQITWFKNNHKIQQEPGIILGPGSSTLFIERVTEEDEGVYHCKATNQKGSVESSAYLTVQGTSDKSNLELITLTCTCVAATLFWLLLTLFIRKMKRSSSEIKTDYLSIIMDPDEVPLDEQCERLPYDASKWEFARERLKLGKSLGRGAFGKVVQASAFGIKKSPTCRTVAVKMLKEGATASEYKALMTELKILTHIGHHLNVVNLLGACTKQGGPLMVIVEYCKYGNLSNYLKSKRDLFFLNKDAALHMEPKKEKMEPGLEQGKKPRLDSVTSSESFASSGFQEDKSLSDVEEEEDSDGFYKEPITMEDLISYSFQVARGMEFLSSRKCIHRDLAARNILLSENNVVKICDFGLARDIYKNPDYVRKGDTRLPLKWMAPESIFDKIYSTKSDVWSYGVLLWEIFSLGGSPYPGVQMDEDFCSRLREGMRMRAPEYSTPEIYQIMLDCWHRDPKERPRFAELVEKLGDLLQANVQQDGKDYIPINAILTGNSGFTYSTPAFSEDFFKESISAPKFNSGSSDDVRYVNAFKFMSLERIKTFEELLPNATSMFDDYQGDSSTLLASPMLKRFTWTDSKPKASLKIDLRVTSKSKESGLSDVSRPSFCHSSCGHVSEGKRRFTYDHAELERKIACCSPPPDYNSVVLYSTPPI

T1 sequence (P35968 20-1356): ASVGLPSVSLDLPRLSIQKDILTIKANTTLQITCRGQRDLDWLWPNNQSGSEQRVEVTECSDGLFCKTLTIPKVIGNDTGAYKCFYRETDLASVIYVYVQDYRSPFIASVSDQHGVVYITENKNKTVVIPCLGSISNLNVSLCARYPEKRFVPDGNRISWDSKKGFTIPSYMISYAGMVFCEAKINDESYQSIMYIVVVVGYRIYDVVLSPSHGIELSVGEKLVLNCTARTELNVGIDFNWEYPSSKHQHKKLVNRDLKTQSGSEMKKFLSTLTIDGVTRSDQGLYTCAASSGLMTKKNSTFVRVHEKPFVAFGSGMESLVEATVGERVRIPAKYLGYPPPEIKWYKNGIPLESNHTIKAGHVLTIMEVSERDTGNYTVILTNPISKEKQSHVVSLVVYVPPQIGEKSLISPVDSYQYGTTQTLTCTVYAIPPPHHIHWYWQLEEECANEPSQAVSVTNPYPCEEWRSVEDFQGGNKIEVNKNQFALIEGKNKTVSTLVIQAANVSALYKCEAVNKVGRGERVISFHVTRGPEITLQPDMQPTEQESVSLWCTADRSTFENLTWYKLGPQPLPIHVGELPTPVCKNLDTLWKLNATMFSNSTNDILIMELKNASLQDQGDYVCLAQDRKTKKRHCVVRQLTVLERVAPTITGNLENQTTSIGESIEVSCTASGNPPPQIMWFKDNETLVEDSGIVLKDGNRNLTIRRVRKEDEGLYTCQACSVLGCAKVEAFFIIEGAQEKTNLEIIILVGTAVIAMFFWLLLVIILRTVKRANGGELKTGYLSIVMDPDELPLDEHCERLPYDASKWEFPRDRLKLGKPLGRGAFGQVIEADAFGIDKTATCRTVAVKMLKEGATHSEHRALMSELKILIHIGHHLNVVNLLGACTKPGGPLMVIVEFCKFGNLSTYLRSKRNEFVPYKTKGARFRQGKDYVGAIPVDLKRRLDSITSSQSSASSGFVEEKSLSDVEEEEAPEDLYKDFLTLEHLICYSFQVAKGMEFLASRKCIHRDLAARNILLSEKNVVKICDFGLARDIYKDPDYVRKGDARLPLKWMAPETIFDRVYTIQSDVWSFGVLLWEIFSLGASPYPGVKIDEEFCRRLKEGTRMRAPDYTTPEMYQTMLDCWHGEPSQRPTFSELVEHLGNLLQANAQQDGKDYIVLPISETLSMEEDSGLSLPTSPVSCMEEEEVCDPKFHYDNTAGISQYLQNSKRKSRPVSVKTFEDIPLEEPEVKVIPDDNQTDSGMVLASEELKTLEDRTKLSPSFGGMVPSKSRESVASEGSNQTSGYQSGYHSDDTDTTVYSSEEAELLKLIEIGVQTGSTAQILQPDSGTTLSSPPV
T4 sequence (P35916 25-1363): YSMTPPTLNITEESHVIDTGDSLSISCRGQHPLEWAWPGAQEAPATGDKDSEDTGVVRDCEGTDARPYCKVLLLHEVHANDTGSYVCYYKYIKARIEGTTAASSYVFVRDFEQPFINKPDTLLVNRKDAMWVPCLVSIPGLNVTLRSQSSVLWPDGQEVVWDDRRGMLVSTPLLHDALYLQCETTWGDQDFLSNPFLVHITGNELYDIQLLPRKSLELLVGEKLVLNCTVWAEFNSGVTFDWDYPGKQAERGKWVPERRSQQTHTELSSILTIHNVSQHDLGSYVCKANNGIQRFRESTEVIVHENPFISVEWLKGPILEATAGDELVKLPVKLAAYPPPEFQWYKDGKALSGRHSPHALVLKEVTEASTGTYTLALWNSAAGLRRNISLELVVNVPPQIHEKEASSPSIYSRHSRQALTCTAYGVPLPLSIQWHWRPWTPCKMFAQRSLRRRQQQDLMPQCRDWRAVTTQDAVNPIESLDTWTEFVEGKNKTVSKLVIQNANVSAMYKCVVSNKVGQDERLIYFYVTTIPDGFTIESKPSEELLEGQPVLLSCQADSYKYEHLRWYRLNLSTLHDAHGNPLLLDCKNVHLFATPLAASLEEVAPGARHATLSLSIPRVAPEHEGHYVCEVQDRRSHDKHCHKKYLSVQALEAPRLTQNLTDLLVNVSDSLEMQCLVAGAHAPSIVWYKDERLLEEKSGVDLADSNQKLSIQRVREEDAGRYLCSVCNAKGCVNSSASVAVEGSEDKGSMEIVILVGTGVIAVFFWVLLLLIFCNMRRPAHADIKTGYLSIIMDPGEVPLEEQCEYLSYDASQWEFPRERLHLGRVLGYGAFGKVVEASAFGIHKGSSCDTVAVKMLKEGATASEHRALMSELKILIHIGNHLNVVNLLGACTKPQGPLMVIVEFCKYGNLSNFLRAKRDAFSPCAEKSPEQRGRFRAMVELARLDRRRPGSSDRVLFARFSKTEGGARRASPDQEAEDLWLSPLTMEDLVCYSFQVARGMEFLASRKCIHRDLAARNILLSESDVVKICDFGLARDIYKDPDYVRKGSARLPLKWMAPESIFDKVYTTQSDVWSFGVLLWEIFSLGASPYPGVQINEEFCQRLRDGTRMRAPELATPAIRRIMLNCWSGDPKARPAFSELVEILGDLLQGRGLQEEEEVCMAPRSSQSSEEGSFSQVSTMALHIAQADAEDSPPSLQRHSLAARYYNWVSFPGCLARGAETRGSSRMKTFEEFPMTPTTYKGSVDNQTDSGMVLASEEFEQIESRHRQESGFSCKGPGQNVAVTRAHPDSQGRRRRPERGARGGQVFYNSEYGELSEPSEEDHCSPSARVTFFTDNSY

Compound: CCn1c(=O)ccc2cnc(Nc3ccc(N4CCN(C)CC4)cc3)nc21 [VCC251801]
- IC50 (VEGFR2): 69 nM
- IC50 (PKD1): 28 nM
- kinase selectivity study (SignalChem) at single 5 μM concentration (PKD2): it showed moderate inhibitory effect against the other PKD isoform, PKD2
- recombinant kinase assay (ProQinase) at single 1 μM concentration (VEGFR3): In this selectivity study, VCC251801 blocked both VEGFR1 and VEGFR3 activation
- recombinant kinase assay (ProQinase) at single 1 μM concentration (VEGFR1): In this selectivity study, VCC251801 blocked both VEGFR1 and VEGFR3 activation

— paper PMC4396990, “Targeting Vascular Endothelial Growth Factor Receptor 2 and Protein Kinase D1 Related Pathways by a Multiple Kinase Inhibitor in Angiogenesis and Inflammation Related Processes In Vitro” (PLoS ONE, 2015)
